Experimental data reported in patent publication US12011439B2, “Combination therapy using C—C chemokine receptor 4 (CCR4) antagonists and one or more immune checkpoint inhibitors” (CHEMOCENTRYX, INC., priority 2018, dated 2024).

What was measured:
Experiment in all cases: Compound 1 selectivity panel, buffer IC50
Format in all cases: cell-based
CCR4 = target: T1, CCR4 (Homo sapiens, UniProt P51679)
T1 sequence (P51679 1-360): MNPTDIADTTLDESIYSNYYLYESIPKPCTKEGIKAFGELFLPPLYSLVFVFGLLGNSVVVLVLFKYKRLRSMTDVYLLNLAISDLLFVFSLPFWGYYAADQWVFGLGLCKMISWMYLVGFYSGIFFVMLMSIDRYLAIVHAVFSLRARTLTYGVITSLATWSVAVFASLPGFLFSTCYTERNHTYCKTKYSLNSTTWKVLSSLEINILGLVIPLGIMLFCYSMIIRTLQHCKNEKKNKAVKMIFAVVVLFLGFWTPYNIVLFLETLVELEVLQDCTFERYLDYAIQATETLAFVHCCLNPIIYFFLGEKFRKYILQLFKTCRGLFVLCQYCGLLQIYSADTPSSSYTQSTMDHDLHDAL
Protocol: (§1) The selectivity of Compound 1 was tested by determining the IC50 value against a diverse panel of receptors, enzymes, and ion channels. […] See, Table 1.

CXCR1 = target: T2, CXCR1 (Homo sapiens, UniProt P25024); details: Receptor CXCR1
T2 sequence (P25024 1-350): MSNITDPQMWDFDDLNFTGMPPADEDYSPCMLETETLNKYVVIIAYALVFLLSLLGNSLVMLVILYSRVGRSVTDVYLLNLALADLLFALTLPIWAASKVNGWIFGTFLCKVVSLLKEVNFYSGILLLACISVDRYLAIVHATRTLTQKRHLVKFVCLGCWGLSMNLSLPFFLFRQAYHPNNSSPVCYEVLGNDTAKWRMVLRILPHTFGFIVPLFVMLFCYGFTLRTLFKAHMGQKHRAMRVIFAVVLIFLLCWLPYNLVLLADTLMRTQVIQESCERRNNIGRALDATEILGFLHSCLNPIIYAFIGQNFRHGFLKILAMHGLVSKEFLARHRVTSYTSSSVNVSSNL
Protocol: as §1

Duffy = target: T3, Duffy (Homo sapiens, UniProt Q16570); details: Receptor Duffy
T3 sequence (Q16570 1-336): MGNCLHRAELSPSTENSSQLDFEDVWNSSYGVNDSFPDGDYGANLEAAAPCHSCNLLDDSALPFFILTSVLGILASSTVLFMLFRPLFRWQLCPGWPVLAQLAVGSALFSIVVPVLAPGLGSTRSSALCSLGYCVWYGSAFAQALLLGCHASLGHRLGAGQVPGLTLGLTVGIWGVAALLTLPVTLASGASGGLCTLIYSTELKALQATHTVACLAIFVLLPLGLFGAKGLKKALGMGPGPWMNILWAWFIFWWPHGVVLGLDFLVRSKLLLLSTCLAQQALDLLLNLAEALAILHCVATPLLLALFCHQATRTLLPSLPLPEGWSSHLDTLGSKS
Protocol: as §1

IC50 (CCR4; Receptor CCR4, buffer): 0.002 µM | Selectivity against a diverse panel of receptors, enzymes, and ion channels (CCR4; in words): highly specific for CCR4 | IC50 (CXCR1): > 10 µM | IC50 (Duffy): > 10 µM
Structure (SMILES): C[C@@H](Nc1cc(C2CCN([C@H]3CCCN(CCC(=O)O)C3)CC2)ccc1Cl)c1ccc(Cl)cc1Cl [Compound 1]
